Key:
[1] = target: DGKα (Homo sapiens (Human), UniProt P23743); test: In vitro DGKα inhibition assay (ADP-Glo); format: biochemical; settings: 0.1 nM DGKα, 50 μM ATP, 20 μM DLG
Procedure: (§1) The DGKα and DGKζ biochemical reactions were performed using His-tagged human recombinant enzymes (Signal Chem, DGKα, #D21-10BH; DGKζ, #D30-10H)) and DLG (Dilauroyl-sn-glycerol) lipid substrate (Signal Chem, #D430-59). ADP-Glo assay was performed using ADP-Glo™ kinase Assay kit (Promega, #V9104). The reactions were carried out in assay buffer containing 40 mM Tris, pH 7.5, 0.1% CHAPS, 0.1% Prionex, 40 mM NaCl, 5 mM MgCl2, 1 mM CaCl2, and 1 mM DTT. DGKα reactions contained 0.1 nM DGKα, 50 μM ATP, and 20 μM DLG. And DGKζ reactions contained 0.4 nM DGKζ, 30 μM ATP, and 20 μM DLG.
(§2) For compound inhibition studies, 40 nL test compound in DMSO was added to wells of white polystyrene plates in 384-well (Greiner, #784075) or 1536-well format (Greiner, #782075). Compounds were added with top concentration of 2 mM with 11 point, 3-fold dilution series. Enzyme solution (contains 2×DGK enzyme concentration in 1× assay buffer) was added to the plate in 2 μL/well volume, followed by 2 μL/well of substrate solution (contains 2× concentration of ATP and DLG substrate in 1× assay buffer). Plates were then centrifuged for 1 min at 1200 RPM and sealed or lidded. For 4 μL reaction volume, test compounds were therefore diluted 100× to final top concentration of 20 μM. After 90 minute incubation, reactions were quenched by addition of 2 μL/well Promega ADP-Glo Reagent, followed by centrifugation and lidding. After 60 min incubation, 2 μL/well Promega Kinase Detection Reagent was added, plates centrifuged, and incubated for 30 min. Plates were then read using Luminescence method on BMG PHERAstar FSX plate reader. Percent inhibition was calculated and IC50s were determined using 4-parameter fit in Genedata Screener. Labcyte Echo acoustic dispenser was used for compound addition, and Formulatrix Tempest liquid handler was used for all reagent dispenses.

[2] = target: DGKζ (Homo sapiens (Human), UniProt Q13574); test: In vitro DGKζ inhibition assay (ADP-Glo); format: biochemical; settings: 0.4 nM DGKζ, 30 μM ATP, 20 μM DLG
Chain of DGKζ (Q13574 whole entry): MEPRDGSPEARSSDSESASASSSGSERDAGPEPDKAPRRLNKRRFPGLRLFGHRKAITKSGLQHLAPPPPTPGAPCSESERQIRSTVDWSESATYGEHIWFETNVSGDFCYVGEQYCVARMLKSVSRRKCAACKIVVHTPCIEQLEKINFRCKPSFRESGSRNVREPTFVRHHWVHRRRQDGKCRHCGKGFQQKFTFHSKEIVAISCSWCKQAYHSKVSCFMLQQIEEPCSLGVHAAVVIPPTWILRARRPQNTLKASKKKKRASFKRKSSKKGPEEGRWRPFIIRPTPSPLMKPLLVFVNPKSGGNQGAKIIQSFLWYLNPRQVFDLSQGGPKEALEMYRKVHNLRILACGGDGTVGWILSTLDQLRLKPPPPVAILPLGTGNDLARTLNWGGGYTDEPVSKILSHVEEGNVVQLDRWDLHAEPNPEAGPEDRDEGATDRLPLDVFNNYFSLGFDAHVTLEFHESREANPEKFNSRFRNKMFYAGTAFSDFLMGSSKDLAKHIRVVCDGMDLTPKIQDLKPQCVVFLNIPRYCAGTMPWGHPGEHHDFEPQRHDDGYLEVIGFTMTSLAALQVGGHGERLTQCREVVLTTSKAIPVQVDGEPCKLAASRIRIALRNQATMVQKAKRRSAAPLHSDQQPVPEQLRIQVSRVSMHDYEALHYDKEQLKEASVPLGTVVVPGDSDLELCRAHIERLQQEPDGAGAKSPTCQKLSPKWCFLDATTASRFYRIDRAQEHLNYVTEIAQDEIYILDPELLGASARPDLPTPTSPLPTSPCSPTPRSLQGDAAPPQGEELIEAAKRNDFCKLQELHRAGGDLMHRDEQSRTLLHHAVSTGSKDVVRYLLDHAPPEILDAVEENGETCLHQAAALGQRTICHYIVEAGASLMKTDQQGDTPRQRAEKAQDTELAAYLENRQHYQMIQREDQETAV
Procedure: as §1, §2

Chain of DGKα (P23743 whole entry): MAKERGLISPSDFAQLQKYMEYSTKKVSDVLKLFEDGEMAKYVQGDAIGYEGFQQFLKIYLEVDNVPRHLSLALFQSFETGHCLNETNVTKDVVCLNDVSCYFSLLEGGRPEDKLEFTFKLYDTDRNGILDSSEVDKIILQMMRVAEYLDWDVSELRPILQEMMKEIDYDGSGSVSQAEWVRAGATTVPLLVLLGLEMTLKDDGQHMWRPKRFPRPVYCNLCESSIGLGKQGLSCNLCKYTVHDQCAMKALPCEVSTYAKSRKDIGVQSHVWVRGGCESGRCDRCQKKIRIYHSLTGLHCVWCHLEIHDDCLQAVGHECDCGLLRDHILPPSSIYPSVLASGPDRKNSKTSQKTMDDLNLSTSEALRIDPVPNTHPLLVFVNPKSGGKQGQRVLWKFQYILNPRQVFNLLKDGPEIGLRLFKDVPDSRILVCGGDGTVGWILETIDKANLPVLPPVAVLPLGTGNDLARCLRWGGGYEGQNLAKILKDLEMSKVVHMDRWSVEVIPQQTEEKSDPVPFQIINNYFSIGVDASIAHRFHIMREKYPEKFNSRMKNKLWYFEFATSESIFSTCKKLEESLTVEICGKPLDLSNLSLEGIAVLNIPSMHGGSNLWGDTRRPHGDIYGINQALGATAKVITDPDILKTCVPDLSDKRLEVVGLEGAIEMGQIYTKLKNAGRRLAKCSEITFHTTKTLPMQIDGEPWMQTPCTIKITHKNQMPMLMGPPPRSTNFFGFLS

Row | IC50 [1] [nM] | IC50 [2] [nM] | Structure (SMILES)
1 | ≤ 20 | ≤ 20 | Cc1nc2c(N3C[C@@H](C)N(C(c4ccc(F)c(Cl)c4)C4CC(F)(F)C4)C[C@@H]3C)nc3nncn3c2n1C[C@@H]1CCCO1 (single isomer, unassigned) [Example 3]
2 | ≤ 20 | ≤ 20 | Cc1nc2c(N3C[C@@H](C)N(C(c4ccc(Cl)c(F)c4)C4CC(F)(F)C4)C[C@@H]3C)nc3nncn3c2n1C[C@@H]1CCCO1 (single isomer, unassigned) [Example 4]
3 | ≤ 20 | ≤ 20 | C[C@@H]1CN(c2nc3nncn3c3c2ncn3C[C@@H]2CCCO2)[C@@H](C)CN1C(c1ccc(C(F)(F)F)cc1)C1CC(F)(F)C1 (single isomer, unassigned) [Example 6]
4 | ≤ 20 | ≤ 20 | C[C@@H]1CN(c2nc3nncn3c3c2ncn3C[C@@H]2CCCO2)[C@@H](C)CN1C(c1ccc(Cl)cc1)[C@@H]1CC1(F)F (single isomer, unassigned) [Example 7]
5 | ≤ 20 | ≤ 20 | C[C@@H]1CN(c2nc3nncn3c3c2ncn3C[C@@H]2CCCO2)[C@@H](C)CN1C(c1ccc(Cl)cc1)[C@H]1CC1(F)F (single isomer, unassigned) [Example 8]
6 | ≤ 20 | ≤ 20 | Cc1nc2c(N3C[C@@H](C)N(C(c4ccc(Cl)cc4)[C@@H]4CC4(F)F)C[C@@H]3C)nc3nncn3c2n1C[C@@H]1CCCO1 (single isomer, unassigned) [Example 9]
7 | ≤ 20 | ≤ 20 | CC(C)CC(c1ccc(Cl)cc1)N1C[C@H](C)N(c2nc3nncn3c3c2ncn3C[C@@H]2CCCO2)C[C@H]1C (single isomer, unassigned) [Example 10]
8 | ≤ 20 | ≤ 20 | Cc1nc2c(N3C[C@@H](C)N(C(CC(C)C)c4ccc(Cl)c(F)c4)C[C@@H]3C)nc3nncn3c2n1C[C@@H]1CCCO1 (single isomer, unassigned) [Example 11]
9 | ≤ 20 | ≤ 20 | Cc1nc2c(N3C[C@@H](C)N(C(c4ccc(C(F)(F)F)cc4)C4CC(F)(F)C4)C[C@@H]3C)cc3nncn3c2n1C[C@@H]1CCCO1 (single isomer, unassigned) [Example 17]
10 | ≤ 20 | 20 to 200 | C[C@@H]1CN(c2cc3nncn3c3c2ncn3C[C@@H]2CCCO2)[C@@H](C)CN1C(c1ccc(Cl)cc1)[C@@H]1CC1(F)F (single isomer, unassigned) [Example 18]
11 | ≤ 20 | ≤ 20 | CC[C@@H]1CN(c2cc3nncn3c3c2nc(C)n3C[C@@H]2CCCO2)[C@@H](C)CN1C(c1ccc(Cl)cc1)C1CC(F)(F)C1 (single isomer, unassigned) [Example 19]
12 | ≤ 20 | ≤ 20 | C[C@@H]1CN(c2cc3nncn3c3c2ncn3C[C@@H]2CCCO2)[C@@H](C)CN1C(c1ccc(Cl)cc1)C1CC(F)(F)C1 (single isomer, unassigned) [Example 22]
13 | ≤ 20 | ≤ 20 | Cc1nc2c(N3C[C@@H](C)N(C(c4ccc(Cl)cc4)C4CC(F)(F)C4)C[C@@H]3C)cc3nncn3c2n1C[C@@H]1CCCO1 (single isomer, unassigned) [Example 23]
14 | ≤ 20 | ≤ 20 | Cc1nc2c(N3C[C@@H](C)N(C(c4ccc(Cl)cc4)c4ccc(Cl)cc4)C[C@@H]3C)nc3nncn3c2n1C[C@@H]1CCCO1 [Example 5, 4-((2S,5R)-4-(Bis(4-chlorophenyl)methyl)-2,5-dimethylpiperazin-1-yl)-2-methyl-1-(((S)-tetrahydrofuran-2-yl)methyl)-1H-[1,2,4]triazolo[3,4-b]purine]
15 | ≤ 20 | ≤ 20 | C[C@@H]1CN(c2nc3nncn3c3c2ncn3C[C@@H]2CCCO2)[C@@H](C)CN1C(c1ccc(Cl)cc1)C1CC(F)(F)C1 (stereo partly drawn) [Example 12, 4-((2S,5R)-4-((4-Chlorophenyl)(3,3-difluorocyclobutyl)methyl)-2,5-dimethylpiperazin-1-yl)-1-(((S)-tetrahydrofuran-2-yl)methyl)-1H-[1,2,4]triazolo[3,4-b]purine]
16 | ≤ 20 | ≤ 20 | CC[C@@H]1CN(c2nc3nncn3c3c2ncn3C[C@@H]2CCCO2)[C@@H](C)CN1C(c1ccc(Cl)cc1)C1CC(F)(F)C1 (stereo partly drawn) [Example 13, 4-((2S,5R)-4-((4-Chlorophenyl)(3,3-difluorocyclobutyl)methyl)-5-ethyl-2-methylpiperazin-1-yl)-1-(((S)-tetrahydrofuran-2-yl)methyl)-1H-[1,2,4]triazolo[3,4-b]purine]
17 | ≤ 20 | ≤ 20 | Cc1nc2c(N3C[C@@H](C)N(Cc4ccc(C(F)(F)F)cc4F)C[C@@H]3C)nc3nncn3c2n1C[C@@H]1CCCO1 [Example 14, 4-((2S,5R)-4-(2-Fluoro-4-(trifluoromethyl)benzyl)-2,5-dimethylpiperazin-1-yl)-2-methyl-1-(((S)-tetrahydrofuran-2-yl)methyl)-1H-[1,2,4]triazolo[3,4-b]purine]
